target: T1, human LCE (Homo sapiens, UniProt Q9H5J4); experiment: LCE enzymatic activity inhibition test; format: biochemical; details: palmitoyl-CoA and [14C]-malonyl-CoA substrate, 37° C. for 90 minutes, pH 6.5
T1 sequence (Q9H5J4 1-265): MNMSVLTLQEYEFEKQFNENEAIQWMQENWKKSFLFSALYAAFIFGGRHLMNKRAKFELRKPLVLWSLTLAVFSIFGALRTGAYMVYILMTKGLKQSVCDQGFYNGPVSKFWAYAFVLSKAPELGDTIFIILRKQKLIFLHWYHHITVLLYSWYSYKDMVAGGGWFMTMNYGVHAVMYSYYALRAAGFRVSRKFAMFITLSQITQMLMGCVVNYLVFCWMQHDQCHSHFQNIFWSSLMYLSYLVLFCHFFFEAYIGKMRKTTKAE
Protocol: A test compound was dissolved in dimethylsulfoxide (DMSO) at 10 mM, and then, the resulting solution was further diluted with DMSO to prepare a 1000-fold stock solution having a concentration 1000 times higher than the concentration to be evaluated. An LCE enzymatic activity inhibition test was carried out by a modified method of Moon (J. Biol. Chem., Vol. 276, pp. 45358-45366, (2001)) et al. That is, the diluted test compound was added to a 96-well assay plate (Corning, 96-Well Assay Block) in an amount of 1.0 μL per well, and thereafter, 50 μL of a phosphate buffer solution (a 100 mM potassium phosphate buffer solution (pH 6.5)), 25 μL of a substrate solution (a 100 mM potassium phosphate buffer solution (pH 6.5), 4.0 μM rotenone, 80 μM fatty acid-free bovine serum albumin, 160 μM palmitoyl-CoA, 80 μM malonyl-CoA, 3.5 μM [^14C]-malonyl-CoA (1.92 GBq/mmol, manufactured by Amersham, Inc.)) was added to each well, and further, 25 μL of an enzyme solution (a 100 mM potassium phosphate buffer solution (pH 6.5), 100 μg/mL human LCE) was added thereto. Then, the upper part of the plate was hermetically closed with a seal member, and the plate was incubated at 37° C. for 90 minutes while gently shaking and stirring. Thereafter, to each well, 100 μL of 5 N HCl was added and the assay plate was stirred at room temperature for 5 minutes, whereby the enzymatic reaction was stopped and also acyl-CoA was hydrolyzed. Thereafter, the enzymatic reaction solution in each well was adsorbed to each well of a 96-well GF/C filter plate (PerkinElmer, Unifilter 96GF/C) through which water had been passed in advance, and then, each well was washed with water to remove unadsorbed malonyl-CoA and the GF/C filter plate was dried at 50° C. for 60 minutes. Thereafter, to each well, 30 μL of a scintillator (PerkinElmer, Microscinti 0) was added and the upper part of the plate was sealed, and the radioactivity of the fixed [^14C] was measured using a microplate scintillation counter (PerkinElmer, Top Count) from which the enzymatic activity was determined. The human LCE enzyme inhibitory activity of the test compound was calculated using the radioactivity obtained from a well to which DMSO containing no test compound is added as a control.

Row | Compound | IC50
1 | CC(C)Oc1ccc(NC(=O)[C@@H]2C[C@@H]3CC[C@H]2N(S(=O)(=O)c2cn(C)cn2)C3)cc1 (relative stereo) [Example 26, (1R*,4S*,6R*)-N-(4-Isopropoxyphenyl)-2-[(1-methyl-1H-imidazol-4-yl)sulfonyl]-2-azabicyclo[2.2.2]octane-6-carboxamide] | 268 nM
2 | CCCCS(=O)(=O)N1C[C@H]2CC[C@@H]1[C@H](C(=O)Nc1cc(C3CC3)n[nH]1)C2 (relative stereo) [Example 42, (1R*,4S*,6R*)-2-(Butylsulfonyl)-N-(3-cyclopropyl-1H-pyrazol-5-yl)-2-azabicyclo[2.2.2]octane-6-carboxamide] | 155 nM
3 | CC(C)Oc1ccc(NC(=O)[C@@H]2C[C@@H]3CC[C@H]2N(S(=O)(=O)c2ccccn2)C3)nc1 (relative stereo) [Example 47, (1R*,4S*,6R*)-N-(5-Isopropoxypyridin-2-yl)-2-(pyridin-2-ylsulfonyl)-2-azabicyclo[2.2.2]octane-6-carboxamide] | 19 nM
4 | CC(C)Oc1ccc(NC(=O)[C@@H]2C[C@@H]3CC[C@H]2N(S(=O)(=O)c2cn(C)cn2)C3)nc1 (relative stereo) [Example 48, (1R*,4S*,6R*)-N-(5-isopropoxypyridin-2-yl)-2-[(1-methyl-1H-imidazol-4-yl)sulfonyl]-2-azabicyclo[2.2.2]octane-6-carboxamide] | 159 nM
5 | CC(C)Oc1cc(NC(=O)[C@@H]2C[C@@H]3CC[C@H]2N(S(=O)(=O)c2cn(C)cn2)C3)n[nH]1 (relative stereo) [Example 105, (1R*,4S*,6R*)-N-(5-Isopropoxy-1H-pyrazol-3-yl)-2-[(1-methyl-1H-imidazol-4-yl)sulfonyl]-2-azabicyclo[2.2.2]octane-6-carboxamide] | 132 nM
6 | COc1ccccc1C(=O)NCC1(c2ccccc2)CCCN(S(=O)(=O)c2ccccn2)C1 (stereo not drawn) [Example 64, 2-Methoxy-N-{[3-phenyl-1-(pyridin-2-ylsulfonyl)piperidin-3-yl]methyl}benzamide] | 20 nM
7 | CC(C)Oc1ccc(C(=O)NCC2(c3ccccc3)CCCN(S(=O)(=O)c3ccccn3)C2)cc1 (stereo not drawn) [Example 73, 4-Isopropoxy-N-{[3-phenyl-1-(pyridin-2-ylsulfonyl)piperidin-3-yl]methyl}benzamide] | 3.7 nM
8 | CC(C)Oc1ccc(C(=O)NCC2(c3ccccc3)CCCN(S(=O)(=O)c3cn(C)cn3)C2)cc1 (stereo not drawn) [Example 74, 4-Isopropoxy-N-({1-[(1-methyl-1H-imidazol-4-yl)sulfonyl]-3-phenylpiperidin-3-yl}methyl)benzamide] | 17.4 nM
9 | CCCS(=O)(=O)N1CCCC(CNC(=O)c2ccc(OC(C)C)cn2)(c2ccccc2)C1 (stereo not drawn) [Example 76, 5-Isopropoxy-N-{[3-phenyl-1-(propylsulfonyl)piperidin-3-yl]methyl}pyridine-2-carboxamide] | 44 nM
10 | CC(C)Oc1ccc(C(=O)NCC2(c3ccccc3)CCCN(S(=O)(=O)c3ccccn3)C2)nc1 (stereo not drawn) [Example 78, 5-Isopropoxy-N-{[3-phenyl-1-(pyridin-2-ylsulfonyl)piperidin-3-yl]methyl}pyridine-2-carboxamide] | 14 nM
11 | CC(C)Oc1ccc(C(=O)NCC2(c3ccccc3)CCCN(S(=O)(=O)c3cn(C)cn3)C2)nc1 (stereo not drawn) [Example 79, 5-Isopropoxy-N-({1-[(1-methyl-1H-imidazol-4-yl)sulfonyl]-3-phenylpiperidin-3-yl}methyl)pyridine-2-carboxamide] | 49 nM
12 | CC(C)Oc1ccc(C(=O)NCC2(C)CCCN(S(=O)(=O)c3ccccc3)C2)cc1 (stereo not drawn) [Example 81, 4-Isopropoxy-N-{[3-methyl-1-(phenylsulfonyl)piperidin-3-yl]methyl}benzamide] | 51 nM
13 | CC(C)Oc1ccc(C(=O)NCC2(C)CCCN(S(=O)(=O)c3ccccn3)C2)cc1 (stereo not drawn) [Example 82, 4-Isopropoxy-N-{[3-methyl-1-(pyridin-2-ylsulfonyl)piperidin-3-yl]methyl}benzamide] | 60 nM
14 | CCC1(CNC(=O)c2ccc(OC(C)C)cc2)CCCN(S(=O)(=O)c2ccccn2)C1 (stereo not drawn) [Example 85, N-{[3-Ethyl-1-(pyridin-2-ylsulfonyl)piperidin-3-yl]methyl}-4-isopropoxybenzamide] | 14 nM
15 | CCC1(CNC(=O)c2ccc(OC(C)C)cc2)CCCN(S(=O)(=O)c2cn(C)cn2)C1 (stereo not drawn) [Example 86, N-({3-Ethyl-1-[(1-methyl-1H-imidazol-4-yl)sulfonyl]piperidin-3-yl}methyl)-4-isopropoxybenzamide] | 284 nM
16 | CC(C)Cc1cc(C(=O)NCC2(c3ccccc3)CCCN(S(=O)(=O)c3cn(C)cn3)C2)[nH]n1 (stereo not drawn) [Example 98, 3-Isobutyl-N-({1-[(1-methyl-1H-imidazol-4-yl)sulfonyl]-3-phenylpiperidin-3-yl}methyl)-1H-pyrazole-5-carboxamide] | 12 nM
17 | CCC1(C(=O)Nc2ccc(OC(C)C)cn2)CCCN(S(=O)(=O)c2cn(C)cn2)C1 (stereo not drawn) [Example 103, 3-Ethyl-N-(5-isopropoxypyridin-2-yl)-1-[(1-methyl-1H-imidazol-4-yl)sulfonyl]piperidine-3-carboxamide] | 35 nM
18 | CCC1(C(=O)Nc2cc(OC(C)C)[nH]n2)CCCN(S(=O)(=O)c2cn(C)cn2)C1 (stereo not drawn) [Example 104, 3-Ethyl-N-(5-isopropoxy-1H-pyrazol-3-yl)-1-[(1-methyl-1H-imidazol-4-yl)sulfonyl]piperidine-3-carboxamide] | 38 nM

— US8367698B2, “3-substituted sulfonyl piperidine derivative” (MSD K.K., priority 2008, dated 2013)
